Patent publication US20050101595A1, “N-containing cycloalkyl-substituted amino-thiazole derivatives and pharmaceutical compositions for inhibiting cell proliferation and methods for their use” (PFIZER INC., priority 2003, published 2005)
Where two headings read alike, the source gives them in different places.

Tested on: HCT-116 cell line
Assay: Inhibition of cell growth, tetrazolium salt (MTT) assay
Format: cell-based
Settings: for inhibition at 0.25 µM / IC50: Homo sapiens; for inhibition at 0.25 µM: HCT-116, HCT116 cells, read-out: % Inhibition HCT116 @ 250 nM; for IC50: HCT-116, 120 h, MTT, three to five days, read-out: HCT-116 IC50
Experimental: Inhibition of Cell Growth: Assessment of Cytotoxicity:
Inhibition of cell growth was measured using the tetrazolium salt assay, which is based on the ability of viable cells to reduce 3-(4,5-dimethylthiazol-2-yl)-2,5-[2H]-diphenyltetrazolium bromide (MTT) to formazan (Mossman, Journal of Immunological Methods, vol. 65 (1983), pp. 55-58). The water-insoluble purple formazan product was then detected spectrophotometrically. The HCT-116 cell line was used as a representative cancer cell line and grown in 96-well plates. Cells were plated in McCoy's 5A Medium at a volume of 135 μl/well. Plates were incubated for four hours before addition of inhibitor compounds. Different concentrations of inhibitor compounds were added in 0.5% (v/v) dimethylsulfoxide (15 μLuwell), and cells were incubated at 37° C. (5% CO2) for three to five days. At the end of the incubation, MTT was added to a final concentration of 0.2 mg/mL, and cells were incubated for 4 hours more at 37° C. After centrifugation of the plates and removal of medium, the absorbance of the formazan (solubilized in dimethylsulfoxide) was measured at 540 nm. […] All results were compared to control cells treated only with 0.5% (v/v) dimethylsulfoxide.

Row | Compound | inhibition at 0.25 µM (compound at 250 nM) [%] | also measured
1 | CCOC(=O)CC(C)NCCS(=O)(=O)N1CCC(Nc2nc(N)c(C(=O)c3c(F)cccc3F)s2)CC1 (stereo not drawn) [Example S91] | 10 | 
2 | Nc1nc(NC2CCN(S(=O)(=O)CCNC3CCSC3=O)CC2)sc1C(=O)c1c(F)cccc1F (stereo not drawn) [Example S152] | 95 | 
3 | CCN(CCO)CCS(=O)(=O)N1CCC(Nc2nc(N)c(C(=O)c3c(F)cccc3F)s2)CC1 [Example S5] | 26 | 
4 | CN(CCc1ccccn1)CCS(=O)(=O)N1CCC(Nc2nc(N)c(C(=O)c3c(F)cccc3F)s2)CC1 [Example S26] | 17 | 
5 | CC(C)(C)CNCCS(=O)(=O)N1CCC(Nc2nc(N)c(C(=O)c3c(F)cccc3F)s2)CC1 [Example S107] | 98 | 
6 | CC(O)CNCCS(=O)(=O)N1CCC(Nc2nc(N)c(C(=O)c3c(F)cccc3F)s2)CC1 (stereo not drawn) [Example S110] | 16 | 
7 | C=CCN(C)CCS(=O)(=O)N1CCC(Nc2nc(N)c(C(=O)c3c(F)cccc3F)s2)CC1 [Example S31] | 27 | 
8 | C=CCNCCS(=O)(=O)N1CCC(Nc2nc(N)c(C(=O)c3c(F)cccc3F)s2)CC1 [Example S120] | 17 | 
9 | Nc1nc(NC2CCN(S(=O)(=O)CCNCCNc3ccccc3)CC2)sc1C(=O)c1c(F)cccc1F [Example S112] | 15 | 
10 | CC(C)C(CO)NCCS(=O)(=O)N1CCC(Nc2nc(N)c(C(=O)c3c(F)cccc3F)s2)CC1 (stereo not drawn) [Example S74] | 9 | 
11 | CCCCN(CC#N)CCS(=O)(=O)N1CCC(Nc2nc(N)c(C(=O)c3c(F)cccc3F)s2)CC1 [Example S2] | 18 | 
12 | C=C(C)CNCCS(=O)(=O)N1CCC(Nc2nc(N)c(C(=O)c3c(F)cccc3F)s2)CC1 [Example S151] | 50 | 
13 | Nc1nc(NC2CCN(S(=O)(=O)CCNCc3ccc(Cl)cc3)CC2)sc1C(=O)c1c(F)cccc1F [Example S103] | 25 | 
14 | Nc1nc(NC2CCN(S(=O)(=O)CCN3CCC(CO)CC3)CC2)sc1C(=O)c1c(F)cccc1F [Example S63] | 4 | 
15 | CCCC(C)NCCS(=O)(=O)N1CCC(Nc2nc(N)c(C(=O)c3c(F)cccc3F)s2)CC1 (stereo not drawn) [Example S93] | 33 | 
16 | CC(=O)NCCNCCS(=O)(=O)N1CCC(Nc2nc(N)c(C(=O)c3c(F)cccc3F)s2)CC1 [Example S113] |  | % Inhibition HCT116 @ 250 nM (HCT116 cells, compound at 250 nM, 0.25 µM): 51%
17 | Nc1nc(NC2CCN(S(=O)(=O)CCNC3CCCCC3)CC2)sc1C(=O)c1c(F)cccc1F [Example S58] | 50 | 
18 | CC(C)OCCCNCCS(=O)(=O)N1CCC(Nc2nc(N)c(C(=O)c3c(F)cccc3F)s2)CC1 [Example S123] | 15 | 
19 | CC1CC(NCCS(=O)(=O)N2CCC(Nc3nc(N)c(C(=O)c4c(F)cccc4F)s3)CC2)CC(C)(C)C1 (stereo not drawn) [Example S136] | 81 | 
20 | Nc1nc(NC2CCN(S(=O)(=O)CCNCC3CC3)CC2)sc1C(=O)c1c(F)cccc1F [Example S139] | 39 | 
21 | CC1CCCC(C)N1CCS(=O)(=O)N1CCC(Nc2nc(N)c(C(=O)c3c(F)cccc3F)s2)CC1 (stereo not drawn) [Example S14] | 91 | 

Row | Compound | inhibition at 0.25 µM (compound at 250 nM) [%] | also measured
22 | CCC(NCCS(=O)(=O)N1CCC(Nc2nc(N)c(C(=O)c3c(F)cccc3F)s2)CC1)c1ccccc1 (stereo not drawn) [Example S141] | 78 | 
23 | Nc1nc(NC2CCN(S(=O)(=O)CCN3CCC(O)C3)CC2)sc1C(=O)c1c(F)cccc1F (stereo not drawn) [Example S18] | 14 | 
24 | NC(=O)[C@H]1CCCN1CCS(=O)(=O)N1CCC(Nc2nc(N)c(C(=O)c3c(F)cccc3F)s2)CC1 [Example S64] | 12 | 
25 | Nc1nc(NC2CCN(S(=O)(=O)CCNCCc3cccnc3)CC2)sc1C(=O)c1c(F)cccc1F [Example S167] | 3 | 
26 | CCN1CCCC1CNCCS(=O)(=O)N1CCC(Nc2nc(N)c(C(=O)c3c(F)cccc3F)s2)CC1 (stereo not drawn) [Example S70] | 23 | 
27 | Cc1ccc(CNCCS(=O)(=O)N2CCC(Nc3nc(N)c(C(=O)c4c(F)cccc4F)s3)CC2)cc1 [Example S105] | 33 | 
28 | CCCC(C)(C)NCCS(=O)(=O)N1CCC(Nc2nc(N)c(C(=O)c3c(F)cccc3F)s2)CC1 [Example S145] | 96 | 
29 | COCCN(C)CCS(=O)(=O)N1CCC(Nc2nc(N)c(C(=O)c3c(F)cccc3F)s2)CC1 [Example S65] | 8 | 
30 | Nc1nc(NC2CCN(S(=O)(=O)CCNCCN3CCCCC3)CC2)sc1C(=O)c1c(F)cccc1F [Example S82] | 15 | 
31 | COC(=O)[C@@H](C)NCCS(=O)(=O)N1CCC(Nc2nc(N)c(C(=O)c3c(F)cccc3F)s2)CC1 [Example S155] | 96 | 
32 | CN(C)[C@@H]1CCN(CCS(=O)(=O)N2CCC(Nc3nc(N)c(C(=O)c4c(F)cccc4F)s3)CC2)C1 [Example S62] | 6 | 
33 | Nc1nc(NC2CCN(S(=O)(=O)CCNCC3CCCO3)CC2)sc1C(=O)c1c(F)cccc1F (stereo not drawn) [Example S77] | 9 | 
34 | Nc1nc(NC2CCN(S(=O)(=O)CCN3CCC[C@H]3CO)CC2)sc1C(=O)c1c(F)cccc1F [Example S19] | 15 | 
35 | COc1ccc(CNCCS(=O)(=O)N2CCC(Nc3nc(N)c(C(=O)c4c(F)cccc4F)s3)CC2)cc1 [Example S104] | 31 | 
36 | COC(CNCCS(=O)(=O)N1CCC(Nc2nc(N)c(C(=O)c3c(F)cccc3F)s2)CC1)OC [Example S108] | 16 | 
37 | Nc1nc(NC2CCN(S(=O)(=O)CCNCc3cccs3)CC2)sc1C(=O)c1c(F)cccc1F [Example S88] | 28 | 
38 | C=CCN(CC=C)CCS(=O)(=O)N1CCC(Nc2nc(N)c(C(=O)c3c(F)cccc3F)s2)CC1 [Example S32] | 69 | 
39 | Nc1nc(NC2CCN(S(=O)(=O)CCNCc3ccccc3)CC2)sc1C(=O)c1c(F)cccc1F [Example K48] |  | IC50 (first HCT-116 column (c4)): 170 nM; IC50 (second HCT-116 column (c5)): 500 nM
40 | CN1CCC(NCCS(=O)(=O)N2CCC(Nc3nc(N)c(C(=O)c4c(F)cccc4F)s3)CC2)C1=O (stereo not drawn) [Example S157] | 16 | 
41 | CN(CCS(=O)(=O)N1CCC(Nc2nc(N)c(C(=O)c3c(F)cccc3F)s2)CC1)CC(=O)N(C)C [Example S55] | 7 | 
42 | Nc1nc(NC2CCN(S(=O)(=O)CCNCCN3CCOCC3)CC2)sc1C(=O)c1c(F)cccc1F [Example S87] | 13 | 

Row | Compound | inhibition at 0.25 µM (compound at 250 nM) [%] | also measured
43 | CC(CO)NCCS(=O)(=O)N1CCC(Nc2nc(N)c(C(=O)c3c(F)cccc3F)s2)CC1 (stereo not drawn) [Example S90] | 7 | 
44 | Nc1nc(NC2CCN(S(=O)(=O)CCNCc3c(F)cccc3F)CC2)sc1C(=O)c1c(F)cccc1F [Example S126] | 68 | 
45 | Nc1nc(NC2CCN(S(=O)(=O)CCN[C@@H]3C=CCCC3)CC2)sc1C(=O)c1c(F)cccc1F [Example S170] | 15 | 
46 | Nc1nc(NC2CCN(S(=O)(=O)CCNC3CCc4ccccc43)CC2)sc1C(=O)c1c(F)cccc1F (stereo not drawn) [Example S73] | 16 | 
47 | Nc1nc(NC2CCN(S(=O)(=O)CCN3CCc4ccccc4C3)CC2)sc1C(=O)c1c(F)cccc1F [Example S27] | 27 | 
48 | CC(C)N(CCNCCS(=O)(=O)N1CCC(Nc2nc(N)c(C(=O)c3c(F)cccc3F)s2)CC1)C(C)C [Example S134] | 17 | 
49 | CN(CCS(=O)(=O)N1CCC(Nc2nc(N)c(C(=O)c3c(F)cccc3F)s2)CC1)Cc1ccccc1 [Example S28] | 80 | 
50 | Nc1nc(NC2CCN(S(=O)(=O)CCNCCc3ccc(O)cc3)CC2)sc1C(=O)c1c(F)cccc1F [Example S117] | 86 | 
51 | Nc1nc(NC2CCN(S(=O)(=O)CCNCCc3cccs3)CC2)sc1C(=O)c1c(F)cccc1F [Example S148] | 34 | 
52 | CC(C)CCNCCS(=O)(=O)N1CCC(Nc2nc(N)c(C(=O)c3c(F)cccc3F)s2)CC1 [Example S122] | 54 | 
53 | Nc1nc(NC2CCN(S(=O)(=O)CCNCCc3ccncc3)CC2)sc1C(=O)c1c(F)cccc1F [Example S140] | 25 | 
54 | Nc1nc(NC2CCN(S(=O)(=O)CCNCCCN3CCCC3=O)CC2)sc1C(=O)c1c(F)cccc1F [Example S71] | 23 | 
55 | Nc1nc(NC2CCN(S(=O)(=O)CCNCCc3cnc[nH]3)CC2)sc1C(=O)c1c(F)cccc1F [Example S75] | 12 | 
56 | Nc1nc(NC2CCN(S(=O)(=O)CCNC3Cc4ccccc4C3)CC2)sc1C(=O)c1c(F)cccc1F [Example S161] | 45 | 
57 | CC(NCCS(=O)(=O)N1CCC(Nc2nc(N)c(C(=O)c3c(F)cccc3F)s2)CC1)c1ccccc1 (stereo not drawn) [Example S78] | 49 | 
58 | Nc1nc(NC2CCN(S(=O)(=O)CCNCc3cc(F)cc(F)c3)CC2)sc1C(=O)c1c(F)cccc1F [Example S154] | 31 | 
59 | CCCCN(CCO)CCS(=O)(=O)N1CCC(Nc2nc(N)c(C(=O)c3c(F)cccc3F)s2)CC1 [Example S36] | 17 | 
60 | CC(CCCC(C)(C)O)NCCS(=O)(=O)N1CCC(Nc2nc(N)c(C(=O)c3c(F)cccc3F)s2)CC1 (stereo not drawn) [Example S162] | 22 | 
61 | Nc1nc(NC2CCN(S(=O)(=O)CCNCc3cccc(F)c3F)CC2)sc1C(=O)c1c(F)cccc1F [Example S158] | 73 | 
62 | CN1CCCC1CCNCCS(=O)(=O)N1CCC(Nc2nc(N)c(C(=O)c3c(F)cccc3F)s2)CC1 (stereo not drawn) [Example S69] | 31 | 
